Measured values as given in patent publication US20030211589A1, “Short peptides from the b4 and b5 regions kinases which selectively modulate protein activity” (priority 2002, published 2003).
The star is where a group is joined. Stearoyl = CCCCCCCCCCCCCCCCCC(=O)*

Legend:
[1] = tested on: Human Fetal lung fibroblasts (HFL-1); test: HFL-1 fibroblast cell proliferation (methylene blue staining); format: cell-based; conditions: peptide 0-10 μM, 48 hours, vs control without peptide; FIG. 4
Method: Human Fetal lung fibroblasts (HFL-1) were obtained from the American Type Culture Collection (Manassas, Va.).
Culture medium was prepared from F-12K (Gibco), penicillin/streptomycin/glutamine (penicillin—100U/ml; streptomycin—100U/ml; glutamine—2 mM), 0.5% fetal calf serum and […] ascorbic acid. A suspension of HFL-1 cells at 2.22×10^5 cell/ml was prepared in the above described culture medium.
A series of B4-5 peptide stock solution was prepared by diluting a […] solution of the B4-5 peptide in 100% DMSO, with phosphate buffered saline (PBS) containing 0.1% BSA. The concentration of B4-5 peptide in each stock solution was adjusted to […] the desired concentration of the B4-5 peptide in the assay mixture. Twenty μl of peptide stock solution were placed at the bottom of each well in a 96-well flat bottom tissue culture plate, six replications for each concentration. BSA solution containing 1% DMSO with no added peptide served as a control. 180 μl of the HFL-1 cell suspension were added to each well (40,000 cells per well). The cells were incubated with the peptide (final concentrations of 0-10μM), for 48 hours at 37° C. in a 5% CO2 humidified incubator. At the end of the incubation the cells were fixed with buffered formaline (200 μl/well) for 1 h at room temperature. […] The O.D. was read at 595 nm to determine the number of cells per well. […]

[2] = tested on: HNK-1-positive neural crest cells from neural primordia explants; test: Emigration of neural crest cells from neural primordia explants (HNK-1 immunostaining); format: cell-based, quail; conditions: 5 μM peptide, 24 hours, serum-free medium, compared to control; FIG. 5
Source text: The procedure for explants of neural primordia is described in greater detail in Sela-Donenfeld and Kalcheim (Development, 1999, in press), the teaching of which are incorporated herein by reference.
The trunk region of 16 somite-old quail embryos was separately sectioned at the level of the segmental plate plus the last 2 epithelial somite pairs. Neural primordia consisting of the neural tube and premigratory neural crest cells were isolated from adjacent tissues with 25% pancreatin in PBS, transferred to PBS supplemented with 5% newborn calf serum to stop enzymatic activity and washed in serum-free culture medium prior to explantation. The neural primordia were then explanted onto multi-well chamber slides that were pre-coated with fibronectin (50 μg/ml) for 1 hour. The neural primordia were cultured in 50 μl serum-free SFRI medium (Berganton, France) in the absence or presence of B4-5 peptide—K099B901, in a final concentration of 5 μM and incubated in a humid chamber for 24 hours. At the end of the incubation, the primordia were gently washed with PBS and fixed with Bouin's fluid, washed 3 times with PBS and immunostained with 50 μl of monoclonal antibodies against HNK-1 for 1 h at room temperature. Excess HNK-1 antibodies were washed 3 times with PBS. The samples were further incubated with 50 μl of a secondary fluorescent antibody, GAM-FITC for 1 h at room temperature. […]

[3] = tested on: fracture site on a rabbit ulna; test: Rabbit ulnar osteotomy model of bone remodeling (histology); format: in vivo, New Zealand White rabbits; conditions: peptide mixture 0.3 cm^3 applied locally to fractured area, 4 weeks, vs untreated osteotomy; FIG. 6
Method: The rabbit ulnar osteotomy models described by Bouxsein et al., at the 45th Annual Meeting, Orthopedic Research Society, Anaheim, Calif. (1999), were employed to assess the ability of the B4-5 peptide K099B901 (ALK4-derived peptide) to accelerate bone remodeling.
Bilateral mid-ulnar osteotomies were made in the front limbs of male New Zealand White rabbits using an oscillating saw. The preparation of the peptide was as follows: 40 mg of peptide were dissolved in 200 μl of DMSO (Sigma) and 800 μl of double distilled water. The solution was mixed with 100 mg of methyl cellulose (Sigma) and 100 mg of carboxymethyl cellulose (Serva).
The K099B901 peptide mixture (0.3 cm^3) was locally applied to the fractured area. An untreated osteotomy served as a control. Radiographs of the ulna were taking weekly for 4 weeks. The rabbits were then sacrificed and the fractured areas were taken for bone histology. The bone tissue was fixated in 4% formaldehide and then soaked in 10% formic acid for decalcification. The decalcified tissue was imbedded in paraffin wax, serially sectioned at 5μ and stained with indigo-carmine.

K099B901: B4-5 peptide K099B901 (ALK4-derived peptide), SEQ ID NO. 30, FIG. 3 (Stearoyl-GDNKDNGTWT-NH2; SMILES CCCCCCCCCCCCCCCCCC(=O)NCC(=O)N[C@@H](CC(=O)O)C(=O)N[C@@H](CC(N)=O)C(=O)N[C@@H](CCCCN)C(=O)N[C@@H](CC(=O)O)C(=O)N[C@@H](CC(N)=O)C(=O)NCC(=O)N[C@H](C(=O)N[C@@H](Cc1c[nH]c2ccccc12)C(=O)N[C@H](C(N)=O)[C@@H](C)O)[C@@H](C)O)
stimulation of cell proliferation of the HFL-1 cells [1]: exceeding 2 × | outgrowth of HNK-1-positive neural crest cells from the explant [2]: remarkable outgrowth of HNK-1—positive neural crest cells from the explant | tissue formed at the fracture site (bone histology) [3]: a bone like bone-tissue was formed leading to a genuine regeneration
